Data as given in US6989393B2, “Ccr5 modulators benzimidazoles or benzotriazoles” (AstraZeneca AB, priority 2000, dated 2006).

melting point [°C]	Structure (SMILES)
156 to 157	c1ccc(C(CCN2CCC(n3cnc4ccccc43)CC2)c2ccccc2)cc1 [Example 2, 1-[1-(3,3-Diphenylpropyl)-piperidin-4-yl]benzimidazole]
172 to 173	N#CC(CCN1CCC(n2cnc3ccccc32)CC1)(c1ccccc1)c1ccccc1 [Example 19, 1-[1-(3-Cyano-3,3-diphenylpropyl)-piperidin-4-yl]benzimidazole]
